Reference: ChEMBL document CHEMBL3046682, “Synthesis of lactosylated piperazinyl porphyrins and their hepatocyte-selective targeting” (Med Chem Res, 2007)
In brackets after ≈: the same amount, converted by molar mass.

Assays:
[1] = system: Liver; experiment: Biodistribution in tumor-bearing Mus musculus KM (mouse) liver at 10 mg/kg, ip after 3 to 24 hr by fluorescence assay; type: ADME, organism-based; design: dose 10 mg/kg, route intraperitoneal; conditions: in vivo
[2] = system: Zone of skin; experiment: Biodistribution in tumor-bearing Mus musculus KM (mouse) skin at 10 mg/kg, ip after 3 to 24 hr by fluorescence assay; type: ADME, organism-based; design: dose 10 mg/kg, route intraperitoneal; conditions: in vivo
[3] = system: Liver; experiment: Biodistribution in tumor-bearing Mus musculus KM (mouse) liver at 10 mg/kg, ip after 144 hr by fluorescence assay; type: ADME, organism-based; design: dose 10 mg/kg, route intraperitoneal; conditions: in vivo
[4] = Cytotoxicity against Homo sapiens (human) Bel7404 cells assessed as cell death after 48 hr by MTT assay in absence of light; type: functional; conditions: BEL-7404, 48 h, read-out: ID50 (the source's name)
[5] = Cytotoxicity against Homo sapiens (human) Bel7404 cells assessed as cell death at 6.25 ug/ml after 18 hr by MTT assay in absence of light; type: functional, BEL-7404
[6] = Photocytotoxicity against Homo sapiens (human) HNE1 cells assessed as cell death at 6.25 ug/ml after 18 hr by MTT assay in presence of light; type: functional
[7] = Cytotoxicity against Homo sapiens (human) MCG cells assessed as cell death at 6.25 ug/ml after 18 hr by MTT assay in absence of light; type: functional
[8] = Photocytotoxicity against Homo sapiens (human) Bel7404 cells assessed as cell death at 6.25 ug/ml after 18 hr by MTT assay in presence of light; type: functional, BEL-7404
[9] = Cytotoxicity against Homo sapiens (human) HNE1 cells assessed as cell death at 6.25 ug/ml after 18 hr by MTT assay in absence of light; type: functional
[10] = Cytotoxicity against Homo sapiens (human) HNE1 cells assessed as cell death after 48 hr by MTT assay in absence of light; type: functional; conditions: HNE1, 48 h, read-out: ID50 (the source's name)
[11] = Cytotoxicity against Homo sapiens (human) MCG cells assessed as cell death after 48 hr by MTT assay in absence of light; type: functional; conditions: read-out: ID50 (the source's name)
[12] = Photocytotoxicity against Homo sapiens (human) MCG cells assessed as cell death at 6.25 ug/ml after 18 hr by MTT assay in presence of light; type: functional
[13] = Solubility of the compound in water; type: physicochemical; conditions: buffer

Structure (SMILES)	Drug uptake [1]	Drug uptake [2]	Drug uptake [3]	IC50 [4]	Activity [5]	Activity [6]	Activity [7]	Activity [8]	Activity [9]	IC50 [10]	IC50 [11]	Activity [12]	solubility [13]
O=C([C@H](O)[C@@H](O)[C@H](O[C@@H]1O[C@H](CO)[C@H](O)[C@H](O)[C@H]1O)[C@H](O)CO)N1CCN(c2ccc(-c3c4nc(c(-c5ccc(N6CCN(C(=O)[C@H](O)[C@@H](O)[C@H](O[C@@H]7O[C@H](CO)[C@H](O)[C@H](O)[C@H]7O)[C@H](O)CO)CC6)cc5)c5ccc([nH]5)c(-c5ccc(N6CCN(C(=O)[C@H](O)[C@@H](O)[C@H](O[C@@H]7O[C@H](CO)[C@H](O)[C@H](O)[C@H]7O)[C@H](O)CO)CC6)cc5)c5nc(c(-c6ccc(N7CCN(C(=O)[C@H](O)[C@@H](O)[C@H](O[C@@H]8O[C@H](CO)[C@H](O)[C@H](O)[C@H]8O)[C@H](O)CO)CC7)cc6)c6ccc3[nH]6)C=C5)C=C4)cc2)CC1	Active	Not Active	Not Active	–	–	–	–	–	–	–	–	–	–
O=C([C@H](O)[C@@H](O)[C@H](O[C@@H]1O[C@H](CO)[C@H](O)[C@H](O)[C@H]1O)[C@H](O)CO)N1CCN(c2ccc(-c3c4nc(c(-c5ccccc5)c5ccc([nH]5)c(-c5ccccc5)c5nc(c(-c6ccccc6)c6ccc3[nH]6)C=C5)C=C4)cc2)CC1	–	–	–	43 µg/mL (≈ 41.4 µM)	8%	75%	8%	75%	8%	46 µg/mL (≈ 44.3 µM)	48 µg/mL (≈ 46.2 µM)	75%	–
C1=Cc2nc1c(-c1ccccc1)c1nc(c(-c3ccccc3)c3ccc([nH]3)c(-c3ccccc3)c3ccc([nH]3)c2-c2ccccc2)C=C1 [TETRAPHENYLPORPHYRIN]	–	–	–	> 50 µg/mL	–	–	–	–	–	> 50 µg/mL	> 50 µg/mL	–	Insoluble
